Key:
Test in all cases: radiometric filter-binding kinase assay
SRC (human) = SRC (human) (UniProt P12931)
CSNK1D (human) = CSNK1D (human) (UniProt P48730)
SYK (human) = SYK (human) (UniProt P43405)
IKBKB (human) = IKBKB (human) (UniProt O14920)
RPS6KA3 KD1 KD2 (human) = RPS6KA3 KD1 KD2 (human) (UniProt P51812)
[1] = test system: AKT2 (human), P31751 [S474D]
RPS6KA5 KD1 KD2 (human) = RPS6KA5 KD1 KD2 (human) (UniProt O75582)
RPS6KA1 KD1 KD2 (human) = RPS6KA1 KD1 KD2 (human) (UniProt Q15418)
NEK2 (human) = NEK2 (human) (UniProt P51955)
PRKAA1 or PRKAA2 (rat) = conditions: accession and sequence are those of the human protein
CHEK2 (human) = CHEK2 (human) (UniProt O96017)
CDK2 CCNA2 (human) = CDK2 CCNA2 (human) (UniProt P20248+P24941)
MAPK14 (human) = MAPK14 (human) (UniProt Q16539)
PIM2 (human) = PIM2 (human) (UniProt Q9P1W9)
PLK1 (human) = PLK1 (human) (UniProt P53350)
PAK7 (human) = PAK7 (human) (UniProt Q9P286)
FLT1 (human) = FLT1 (human) (UniProt P17948)
MKNK2 (human) = MKNK2 (human) (UniProt Q9HBH9)
IKBKE (human) = IKBKE (human) (UniProt Q14164)
NEK6 (human) = NEK6 (human) (UniProt Q9HC98)
MAPK1 (human) = MAPK1 (human) (UniProt P28482)
INSRR (human) = INSRR (human) (UniProt P14616)
MAPK3 (human) = MAPK3 (human) (UniProt P27361)
MAP2K1 (human) = MAP2K1 (human) (UniProt Q02750)
BTK (human) = BTK (human) (UniProt Q06187)
PRKACA (human) = PRKACA (human) (UniProt P17612)
MAPK15 (human) = MAPK15 (human) (UniProt Q8TD08)
[2] = test system: RPS6KB1 (human), P23443 [T412E]
CSK (human) = CSK (human) (UniProt P41240)

Sequence of AKT2 (human), P31751 [S474D] (P31751 whole entry S474D, looked up): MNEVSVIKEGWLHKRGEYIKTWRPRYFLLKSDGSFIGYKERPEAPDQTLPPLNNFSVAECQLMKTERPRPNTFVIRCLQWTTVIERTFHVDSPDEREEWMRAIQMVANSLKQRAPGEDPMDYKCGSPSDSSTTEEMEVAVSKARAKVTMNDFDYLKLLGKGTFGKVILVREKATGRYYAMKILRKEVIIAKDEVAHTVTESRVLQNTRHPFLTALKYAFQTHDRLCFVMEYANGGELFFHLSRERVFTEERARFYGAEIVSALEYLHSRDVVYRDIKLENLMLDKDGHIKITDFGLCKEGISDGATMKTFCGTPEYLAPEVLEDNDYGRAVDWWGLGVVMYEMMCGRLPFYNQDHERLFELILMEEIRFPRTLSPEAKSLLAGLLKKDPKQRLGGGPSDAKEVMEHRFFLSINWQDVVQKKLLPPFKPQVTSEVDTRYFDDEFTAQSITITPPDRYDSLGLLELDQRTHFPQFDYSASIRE
Sequence of MAPK1 (human) (P28482 whole entry, looked up): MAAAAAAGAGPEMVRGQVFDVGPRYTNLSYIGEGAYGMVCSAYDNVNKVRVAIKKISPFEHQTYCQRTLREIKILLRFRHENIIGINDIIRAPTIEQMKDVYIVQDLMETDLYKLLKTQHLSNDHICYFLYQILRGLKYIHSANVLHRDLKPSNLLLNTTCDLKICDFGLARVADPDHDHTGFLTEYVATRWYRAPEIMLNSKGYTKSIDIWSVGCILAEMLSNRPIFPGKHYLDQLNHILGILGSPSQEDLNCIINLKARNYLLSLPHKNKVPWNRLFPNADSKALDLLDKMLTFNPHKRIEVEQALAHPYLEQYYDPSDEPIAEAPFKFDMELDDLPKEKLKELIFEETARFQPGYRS
Sequence of MAPK15 (human) (Q8TD08 whole entry, looked up): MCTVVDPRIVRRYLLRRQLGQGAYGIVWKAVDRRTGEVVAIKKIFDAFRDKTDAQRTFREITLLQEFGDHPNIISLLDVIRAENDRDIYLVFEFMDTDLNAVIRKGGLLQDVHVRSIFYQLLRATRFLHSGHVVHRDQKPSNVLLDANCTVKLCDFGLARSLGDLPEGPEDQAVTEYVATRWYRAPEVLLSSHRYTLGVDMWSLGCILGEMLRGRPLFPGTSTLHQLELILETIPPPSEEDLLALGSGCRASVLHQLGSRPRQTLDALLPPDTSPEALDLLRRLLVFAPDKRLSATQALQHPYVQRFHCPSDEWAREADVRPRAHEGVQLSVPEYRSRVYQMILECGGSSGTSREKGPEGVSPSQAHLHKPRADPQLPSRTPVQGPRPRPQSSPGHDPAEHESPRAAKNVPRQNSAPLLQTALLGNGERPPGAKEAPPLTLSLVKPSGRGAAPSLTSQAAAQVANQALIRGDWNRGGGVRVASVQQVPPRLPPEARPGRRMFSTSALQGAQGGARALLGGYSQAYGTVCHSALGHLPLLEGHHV
Sequence of IKBKE (human) (Q14164 whole entry, looked up): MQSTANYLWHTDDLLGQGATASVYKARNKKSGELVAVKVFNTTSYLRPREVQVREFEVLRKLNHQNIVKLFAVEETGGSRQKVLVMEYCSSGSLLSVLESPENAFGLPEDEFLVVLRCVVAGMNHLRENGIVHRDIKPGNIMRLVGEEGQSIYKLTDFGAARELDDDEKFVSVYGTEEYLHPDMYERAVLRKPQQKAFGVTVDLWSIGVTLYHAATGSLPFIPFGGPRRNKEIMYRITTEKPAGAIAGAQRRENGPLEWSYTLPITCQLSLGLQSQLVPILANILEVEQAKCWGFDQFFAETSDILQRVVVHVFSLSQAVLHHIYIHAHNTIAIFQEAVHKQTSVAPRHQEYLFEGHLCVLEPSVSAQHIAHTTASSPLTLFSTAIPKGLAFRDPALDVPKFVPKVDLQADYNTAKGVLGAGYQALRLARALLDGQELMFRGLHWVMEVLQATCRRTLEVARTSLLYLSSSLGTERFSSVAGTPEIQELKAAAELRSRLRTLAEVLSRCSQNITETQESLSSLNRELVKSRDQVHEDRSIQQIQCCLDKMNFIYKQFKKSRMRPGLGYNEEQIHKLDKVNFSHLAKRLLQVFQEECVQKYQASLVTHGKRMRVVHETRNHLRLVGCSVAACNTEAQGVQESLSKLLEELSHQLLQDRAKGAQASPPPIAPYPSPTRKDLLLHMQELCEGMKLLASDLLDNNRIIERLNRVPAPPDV
Sequence of NEK2 (human) (P51955 whole entry, looked up): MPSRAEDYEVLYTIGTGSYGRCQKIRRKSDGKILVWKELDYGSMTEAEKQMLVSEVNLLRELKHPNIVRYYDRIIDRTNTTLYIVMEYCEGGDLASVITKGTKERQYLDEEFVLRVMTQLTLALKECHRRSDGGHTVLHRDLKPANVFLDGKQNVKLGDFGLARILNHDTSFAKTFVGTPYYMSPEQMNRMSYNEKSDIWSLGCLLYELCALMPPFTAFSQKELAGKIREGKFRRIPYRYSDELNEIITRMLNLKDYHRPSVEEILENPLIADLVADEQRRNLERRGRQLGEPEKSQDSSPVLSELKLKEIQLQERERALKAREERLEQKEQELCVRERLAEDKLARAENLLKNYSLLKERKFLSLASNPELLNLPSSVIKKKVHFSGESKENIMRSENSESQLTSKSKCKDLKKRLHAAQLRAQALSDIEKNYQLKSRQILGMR
Sequence of PLK1 (human) (P53350 whole entry, looked up): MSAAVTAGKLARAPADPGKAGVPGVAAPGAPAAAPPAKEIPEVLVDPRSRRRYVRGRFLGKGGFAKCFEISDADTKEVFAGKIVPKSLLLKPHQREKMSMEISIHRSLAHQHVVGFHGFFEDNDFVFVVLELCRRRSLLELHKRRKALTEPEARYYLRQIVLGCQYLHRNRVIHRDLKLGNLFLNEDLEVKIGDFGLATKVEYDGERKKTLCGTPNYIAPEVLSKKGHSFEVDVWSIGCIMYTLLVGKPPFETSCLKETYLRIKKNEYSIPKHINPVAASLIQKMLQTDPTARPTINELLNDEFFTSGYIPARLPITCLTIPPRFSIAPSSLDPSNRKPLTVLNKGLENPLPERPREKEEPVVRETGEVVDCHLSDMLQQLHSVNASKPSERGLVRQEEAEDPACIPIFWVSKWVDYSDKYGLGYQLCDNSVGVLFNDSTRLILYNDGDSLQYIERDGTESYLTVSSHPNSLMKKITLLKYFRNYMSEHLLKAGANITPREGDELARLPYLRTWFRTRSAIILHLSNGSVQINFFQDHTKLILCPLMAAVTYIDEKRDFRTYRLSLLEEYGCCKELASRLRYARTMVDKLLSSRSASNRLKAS
Sequence of IKBKB (human) (O14920 whole entry, looked up): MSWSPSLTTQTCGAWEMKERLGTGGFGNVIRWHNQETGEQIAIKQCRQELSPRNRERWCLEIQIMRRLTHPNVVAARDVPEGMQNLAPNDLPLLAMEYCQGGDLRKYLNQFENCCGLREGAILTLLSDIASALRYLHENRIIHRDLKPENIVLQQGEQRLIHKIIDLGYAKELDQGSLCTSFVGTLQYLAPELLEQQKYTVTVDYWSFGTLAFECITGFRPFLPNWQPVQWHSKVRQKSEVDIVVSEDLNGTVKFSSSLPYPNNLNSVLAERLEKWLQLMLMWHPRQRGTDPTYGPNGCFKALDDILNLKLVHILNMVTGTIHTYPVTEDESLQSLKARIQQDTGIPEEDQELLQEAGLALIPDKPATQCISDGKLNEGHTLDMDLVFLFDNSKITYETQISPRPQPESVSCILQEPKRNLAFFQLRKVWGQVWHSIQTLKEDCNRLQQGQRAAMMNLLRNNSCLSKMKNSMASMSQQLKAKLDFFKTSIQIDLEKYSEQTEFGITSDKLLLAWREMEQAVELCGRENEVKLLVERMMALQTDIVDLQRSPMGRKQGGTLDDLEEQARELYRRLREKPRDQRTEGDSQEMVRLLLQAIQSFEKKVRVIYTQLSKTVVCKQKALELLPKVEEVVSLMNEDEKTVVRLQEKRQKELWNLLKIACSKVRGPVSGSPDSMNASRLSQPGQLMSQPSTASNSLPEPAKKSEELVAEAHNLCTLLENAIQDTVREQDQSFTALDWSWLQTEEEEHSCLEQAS
Sequence of NEK6 (human) (Q9HC98 whole entry, looked up): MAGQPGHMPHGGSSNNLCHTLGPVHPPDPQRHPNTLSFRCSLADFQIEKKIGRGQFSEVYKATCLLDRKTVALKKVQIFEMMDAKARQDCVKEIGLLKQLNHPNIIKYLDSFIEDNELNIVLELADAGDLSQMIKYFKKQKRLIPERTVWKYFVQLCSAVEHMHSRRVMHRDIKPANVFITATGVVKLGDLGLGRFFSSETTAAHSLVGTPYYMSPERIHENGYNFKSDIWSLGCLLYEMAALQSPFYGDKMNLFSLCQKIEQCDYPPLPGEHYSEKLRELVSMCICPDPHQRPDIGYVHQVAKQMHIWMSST
Sequence of CSNK1D (human) (P48730 whole entry, looked up): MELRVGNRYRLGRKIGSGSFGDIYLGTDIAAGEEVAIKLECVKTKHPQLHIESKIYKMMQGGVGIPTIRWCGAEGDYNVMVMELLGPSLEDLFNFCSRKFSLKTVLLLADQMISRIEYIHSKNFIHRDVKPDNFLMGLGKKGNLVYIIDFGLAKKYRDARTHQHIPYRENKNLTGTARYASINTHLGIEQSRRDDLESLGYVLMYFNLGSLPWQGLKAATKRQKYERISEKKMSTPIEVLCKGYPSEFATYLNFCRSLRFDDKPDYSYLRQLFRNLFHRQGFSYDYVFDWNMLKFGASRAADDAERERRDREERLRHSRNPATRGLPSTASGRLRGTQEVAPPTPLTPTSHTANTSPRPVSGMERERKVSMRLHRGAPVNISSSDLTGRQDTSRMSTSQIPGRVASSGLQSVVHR
Sequence of MAPK14 (human) (Q16539 whole entry, looked up): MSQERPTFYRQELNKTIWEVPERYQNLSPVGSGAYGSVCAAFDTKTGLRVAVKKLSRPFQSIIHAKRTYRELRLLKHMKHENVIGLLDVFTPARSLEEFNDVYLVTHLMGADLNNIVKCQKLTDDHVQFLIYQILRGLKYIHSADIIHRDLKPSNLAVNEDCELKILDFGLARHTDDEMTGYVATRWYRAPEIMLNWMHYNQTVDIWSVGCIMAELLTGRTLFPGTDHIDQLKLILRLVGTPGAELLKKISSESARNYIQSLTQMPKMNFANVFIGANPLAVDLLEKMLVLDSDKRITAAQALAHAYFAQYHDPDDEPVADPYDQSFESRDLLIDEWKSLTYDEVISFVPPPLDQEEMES

**Q.** `CCc1cncnc1N1CCN(Cc2nc3cc(C(F)(F)F)ccc3[nH]2)CC1` was tested. Which residual activity (SRC (human); compound 0.1 µM) did it give?
**A.** The residual activity was 103%.

**Q.** What about the residual activity (SRC (human); compound 10.0 µM) of the same compound?
**A.** Its residual activity is 92%.

**Q.** What about the residual activity (CSNK1D (human); compound 0.1 µM) of the same compound?
**A.** Its residual activity is 96%.

**Q.** And the residual activity (CSNK1D (human); compound 1.0 µM)?
**A.** The residual activity was 93%.

**Q.** And the residual activity (CSNK1D (human); compound 10.0 µM)?
**A.** Its residual activity is 71%.

**Q.** What about the residual activity (SYK (human); compound 0.1 µM) of the same compound?
**A.** The residual activity was 121%.

**Q.** What about the residual activity (SYK (human); compound 1.0 µM) of the same compound?
**A.** Its residual activity is 100%.

**Q.** And the residual activity (SYK (human); compound 10.0 µM)?
**A.** Its residual activity is 91%.

**Q.** And the residual activity (IKBKB (human); compound 0.1 µM)?
**A.** Its residual activity is 104%.

**Q.** What about the residual activity (IKBKB (human); compound 1.0 µM) of the same compound?
**A.** Its residual activity is 119%.

**Q.** And the residual activity (IKBKB (human); compound 10.0 µM)?
**A.** The residual activity was 102%.

**Q.** And the residual activity (RPS6KA3 KD1 KD2 (human); compound 0.1 µM)?
**A.** The residual activity was 86%.

**Q.** What about the residual activity (RPS6KA3 KD1 KD2 (human); compound 1.0 µM) of the same compound?
**A.** Its residual activity is 67%.

**Q.** And the residual activity (RPS6KA3 KD1 KD2 (human); compound 10.0 µM)?
**A.** The residual activity was 25%.

**Q.** What about the residual activity ([1]; compound 0.1 µM) of the same compound?
**A.** Its residual activity is 74%.

**Q.** And the residual activity ([1]; compound 1.0 µM)?
**A.** Its residual activity is 73%.

**Q.** And the residual activity ([1]; compound 10.0 µM)?
**A.** The residual activity was 60%.

**Q.** And the residual activity (RPS6KA5 KD1 KD2 (human); compound 0.1 µM)?
**A.** The residual activity was 80%.

**Q.** What about the residual activity (RPS6KA5 KD1 KD2 (human); compound 1.0 µM) of the same compound?
**A.** Its residual activity is 34%.

**Q.** And the residual activity (RPS6KA5 KD1 KD2 (human); compound 10.0 µM)?
**A.** The residual activity was 6%.

**Q.** What about the residual activity (RPS6KA1 KD1 KD2 (human); compound 0.1 µM) of the same compound?
**A.** The residual activity was 46%.

**Q.** And the residual activity (RPS6KA1 KD1 KD2 (human); compound 1.0 µM)?
**A.** Its residual activity is 33%.

**Q.** And the residual activity (RPS6KA1 KD1 KD2 (human); compound 10.0 µM)?
**A.** Its residual activity is 0%.

**Q.** And the residual activity (NEK2 (human); compound 0.1 µM)?
**A.** The residual activity was 95%.

**Q.** What about the residual activity (NEK2 (human); compound 1.0 µM) of the same compound?
**A.** Its residual activity is 94%.

**Q.** What about the residual activity (NEK2 (human); compound 10.0 µM) of the same compound?
**A.** Its residual activity is 91%.

**Q.** And the residual activity (PRKAA1 or PRKAA2 (rat); compound 0.1 µM)?
**A.** Its residual activity is 100%.

**Q.** And the residual activity (PRKAA1 or PRKAA2 (rat); compound 1.0 µM)?
**A.** The residual activity was 88%.

**Q.** And the residual activity (PRKAA1 or PRKAA2 (rat); compound 10.0 µM)?
**A.** Its residual activity is 46%.

**Q.** And the residual activity (CHEK2 (human); compound 0.1 µM)?
**A.** The residual activity was 101%.

**Q.** And the residual activity (CHEK2 (human); compound 1.0 µM)?
**A.** The residual activity was 73%.

**Q.** What about the residual activity (CHEK2 (human); compound 10.0 µM) of the same compound?
**A.** The residual activity was 72%.

**Q.** And the residual activity (CDK2 CCNA2 (human); compound 1.0 µM)?
**A.** Its residual activity is 101%.

**Q.** And the residual activity (CDK2 CCNA2 (human); compound 10.0 µM)?
**A.** The residual activity was 88%.

**Q.** What about the residual activity (MAPK14 (human); compound 0.1 µM) of the same compound?
**A.** The residual activity was 86%.

**Q.** And the residual activity (MAPK14 (human); compound 1.0 µM)?
**A.** Its residual activity is 79%.

**Q.** And the residual activity (MAPK14 (human); compound 10.0 µM)?
**A.** The residual activity was 86%.

**Q.** What about the residual activity (PIM2 (human); compound 0.1 µM) of the same compound?
**A.** The residual activity was 90%.

**Q.** And the residual activity (PIM2 (human); compound 1.0 µM)?
**A.** The residual activity was 90%.

**Q.** What about the residual activity (PIM2 (human); compound 10.0 µM) of the same compound?
**A.** Its residual activity is 100%.

**Q.** And the residual activity (PLK1 (human); compound 0.1 µM)?
**A.** The residual activity was 98%.

**Q.** And the residual activity (PLK1 (human); compound 1.0 µM)?
**A.** Its residual activity is 87%.

**Q.** And the residual activity (PLK1 (human); compound 10.0 µM)?
**A.** Its residual activity is 88%.

**Q.** And the residual activity (PAK7 (human); compound 1.0 µM)?
**A.** The residual activity was 88%.

**Q.** And the residual activity (PAK7 (human); compound 10.0 µM)?
**A.** The residual activity was 87%.

**Q.** What about the residual activity (FLT1 (human); compound 0.1 µM) of the same compound?
**A.** Its residual activity is 97%.

**Q.** And the residual activity (FLT1 (human); compound 1.0 µM)?
**A.** Its residual activity is 83%.

**Q.** And the residual activity (FLT1 (human); compound 10.0 µM)?
**A.** Its residual activity is 37%.

**Q.** What about the residual activity (MKNK2 (human); compound 0.1 µM) of the same compound?
**A.** Its residual activity is 92%.

**Q.** And the residual activity (MKNK2 (human); compound 1.0 µM)?
**A.** The residual activity was 93%.

**Q.** What about the residual activity (MKNK2 (human); compound 10.0 µM) of the same compound?
**A.** The residual activity was 79%.

**Q.** And the residual activity (IKBKE (human); compound 0.1 µM)?
**A.** The residual activity was 103%.

**Q.** And the residual activity (IKBKE (human); compound 1.0 µM)?
**A.** The residual activity was 99%.

**Q.** And the residual activity (IKBKE (human); compound 10.0 µM)?
**A.** Its residual activity is 96%.

**Q.** And the residual activity (NEK6 (human); compound 0.1 µM)?
**A.** The residual activity was 88%.

**Q.** And the residual activity (NEK6 (human); compound 1.0 µM)?
**A.** Its residual activity is 75%.

**Q.** What about the residual activity (NEK6 (human); compound 10.0 µM) of the same compound?
**A.** Its residual activity is 80%.

**Q.** And the residual activity (MAPK1 (human); compound 0.1 µM)?
**A.** Its residual activity is 93%.

**Q.** What about the residual activity (MAPK1 (human); compound 1.0 µM) of the same compound?
**A.** Its residual activity is 85%.

**Q.** And the residual activity (MAPK1 (human); compound 10.0 µM)?
**A.** Its residual activity is 86%.

**Q.** What about the residual activity (INSRR (human); compound 0.1 µM) of the same compound?
**A.** Its residual activity is 88%.

**Q.** And the residual activity (INSRR (human); compound 1.0 µM)?
**A.** Its residual activity is 96%.

**Q.** And the residual activity (INSRR (human); compound 10.0 µM)?
**A.** The residual activity was 77%.

**Q.** And the residual activity (MAPK3 (human); compound 0.1 µM)?
**A.** Its residual activity is 93%.

**Q.** What about the residual activity (MAPK3 (human); compound 1.0 µM) of the same compound?
**A.** The residual activity was 85%.

**Q.** What about the residual activity (MAP2K1 (human); compound 0.1 µM) of the same compound?
**A.** Its residual activity is 117%.

**Q.** What about the residual activity (MAP2K1 (human); compound 1.0 µM) of the same compound?
**A.** The residual activity was 104%.

**Q.** And the residual activity (MAP2K1 (human); compound 10.0 µM)?
**A.** The residual activity was 96%.

**Q.** And the residual activity (BTK (human); compound 0.1 µM)?
**A.** The residual activity was 83%.

**Q.** And the residual activity (BTK (human); compound 1.0 µM)?
**A.** The residual activity was 87%.

**Q.** And the residual activity (BTK (human); compound 10.0 µM)?
**A.** Its residual activity is 92%.

**Q.** What about the residual activity (PRKACA (human); compound 0.1 µM) of the same compound?
**A.** Its residual activity is 84%.

**Q.** And the residual activity (PRKACA (human); compound 1.0 µM)?
**A.** Its residual activity is 83%.

**Q.** And the residual activity (PRKACA (human); compound 10.0 µM)?
**A.** Its residual activity is 34%.

**Q.** And the residual activity (MAPK15 (human); compound 0.1 µM)?
**A.** The residual activity was 85%.

**Q.** What about the residual activity (MAPK15 (human); compound 1.0 µM) of the same compound?
**A.** The residual activity was 83%.

**Q.** And the residual activity (MAPK15 (human); compound 10.0 µM)?
**A.** The residual activity was 71%.

**Q.** What about the residual activity ([2]; compound 0.1 µM) of the same compound?
**A.** Its residual activity is 39%.

**Q.** What about the residual activity ([2]; compound 1.0 µM) of the same compound?
**A.** The residual activity was 16%.

**Q.** And the residual activity ([2]; compound 10.0 µM)?
**A.** Its residual activity is 6%.

**Q.** What about the residual activity (CSK (human); compound 0.1 µM) of the same compound?
**A.** The residual activity was 94%.

**Q.** What about the residual activity (CSK (human); compound 1.0 µM) of the same compound?
**A.** Its residual activity is 93%.

**Q.** And the residual activity (CSK (human); compound 10.0 µM)?
**A.** Its residual activity is 98%.
